In the OPERA property sets (Mansouri et al. 2018):
Values after ≈ are worked out from the molar mass of the structure shown.

| SMILES | logP | solubility |
| --- | --- | --- |
| CCOC(=O)CCn1nc2ccccc2n1 | 2.12 |  |
| Clc1cccc(O[Si]23OCCN(CCO2)CCO3)c1 | 0.46 |  |
| N#CCCC#N | -0.99 |  |
| C=CCOc1ccccc1OCC(CNC(C)C)OC(=O)C(C)C (stereo unspecified) | 3.77 |  |
| CCCCCCOC(=O)C1=C=CC(=O)NC(=O)N1 | 1.76 |  |
| C=CCSCC1Nc2cc(Cl)c(S(N)(=O)=O)cc2S(=O)(=O)N1 (stereo unspecified) | 1.17 |  |
| O=CC=Cc1ccc([N+](=O)[O-])o1 | 0.96 |  |
| COc1cc(CC(=O)O)ccc1O | 0.33 |  |
| CCCCC(C)O (stereo unspecified) | 1.76 |  |
| OC(CN1C2CCOCC21)Cn1ccnc1 (stereo unspecified) | 0.07 |  |
| CCCCCCCCNC(=O)n1cc(F)c(=O)[nH]c1=O | 3.9 |  |
| CCCCCCN1CC(C(=O)OC)CC1=O (stereo unspecified) | 2.3 |  |
| CCC(=O)CC |  | 558000 µM (≈ 48100 µg/mL) |
| Cc1ccc2ccc3ccccc3c2c1 | 5.15 |  |
| CCCCCCCCCC1(CC)C(=O)NC(=O)NC1=O | 4 |  |
| CC(C)COCC(C)C | 2.78 |  |
| CS/C(C)=N/O | 1.12 |  |
| c1ccc2c(c1)ccc1nc3ccc4ccccc4c3cc12 | 5.63 |  |
| ClC(Cl)(Cl)c1nc(NCc2ccccc2)nc(C(Cl)(Cl)Cl)n1 | 4.93 |  |
| COc1c(Cl)cc(Cl)cc1Cl | 4.11 |  |
| COCC(C)OC(=O)C(N)Cc1ccc(O)c(O)c1 (stereo unspecified) | 0.08 |  |
| CC(C)(C)OCCO | 0.39 |  |
| Nc1cc(Cl)c(S(N)(=O)=O)cc1S(N)(=O)=O | -0.41 |  |
| NS(=O)(=O)c1nc2ccc(OCCO)cc2s1 | 0.59 |  |
| CCC(C)n1ncn(-c2ccc(N3CCN(c4ccc(OC[C@H]5CO[C@](Cn6cncn6)(c6ccc(Cl)cc6Cl)O5)cc4)CC3)cc2)c1=O (stereo partly specified) | 5.66 |  |
| CC(C)(O)C(=O)Nc1ccc([N+](=O)[O-])cc1 | 1.61 |  |
| O=C(O)CNC(=O)c1ccc(I)cc1 | 1.94 |  |

| SMILES | logP | solubility |
| --- | --- | --- |
| Cc1nc(NCC(C)O)c(C#N)cc1-c1ccccc1 (stereo unspecified) | 2.72 |  |
| CCCSc1ccc2[nH]c(NC(=O)OC)nc2c1 | 3.07 |  |
| CCN(CC)P(=O)(N(CC)CC)N(CC)CC | 2.53 |  |
| CCCN(C)N=O | 0.56 |  |
| C=CCOc1ccccc1OCC(CNC(C)C)OC(=O)CC (stereo unspecified) | 3.76 |  |
| CCCCN(CC)N=O | 1.63 |  |
| O=c1[nH]cnc2c1ncn2C1CC(O)C(CO)O1 (stereo unspecified) | -1.71 |  |
| CCNC(=O)Nc1ncc([N+](=O)[O-])s1 |  | 1390 µM (≈ 300 µg/mL) |
| c1ccc2cc3c(ccc4ccccc43)cc2c1 | 5.76 |  |
| OC[C@@H]1C[C@H](F)[C@H](n2cnc3cncnc32)O1 | -0.4 |  |
| c1ccc2c(c1)oc1ccccc12 |  | 18.4 µM (≈ 3.1 µg/mL) |
| O=CNc1nc(-c2ccc([N+](=O)[O-])o2)cs1 | -1.14 |  |
| Cc1ccc(S(=O)(=O)NC(CCC(=O)NC2CCCCC2)C(=O)O)cc1 (stereo unspecified) | 0.1 |  |
| O=C(c1ccc(Cl)cc1)c1cc(F)ccc1O | 4.05 |  |
| COC(=O)c1ccsc1S(=O)(=O)NC(=O)Nc1nc(OC)nc(OC)n1 | 1.3 |  |
| CC(C)=CC1C(C(=O)OCc2coc(Cc3ccccc3)c2)C1(C)C (stereo unspecified) | 6.14 |  |
| CCOC1OC2OC3(C)CCC4C(COC5OC(C(=O)O)C(O)C(O)C5O)CCC(C1C)C24OO3 (stereo unspecified) | 1.05 |  |
| Cc1cc(C)c(N)cc1C | 2.27 |  |
| CC1CCc2cc(F)cc3c(=O)c(C(=O)O)cn1c23 (stereo unspecified) | 1.6 |  |
| CC1CCCCN1CCCOC(=O)c1ccc(Cl)c(Cl)c1 (stereo unspecified) |  | 60.6 µM (≈ 20 µg/mL) |
| Cc1cccc2[nH]ccc12 | 2.54 |  |
| CCCCCCCCCCCC | 6.1 |  |
| Clc1cc(Cl)c(-c2ccc(Cl)c(Cl)c2Cl)cc1Cl | 7.44 |  |
| COC(=O)c1ccc(Cl)cc1 | 2.87 |  |
| CC(=O)Nc1nc(=O)c2ncn(COCCOC(C)=O)c2[nH]1 | -0.85 |  |
| CN1CC=C(c2ccncc2)CC1 | 1.25 |  |
| CCOC(=O)c1ccc(OCC)cc1 | 3.6 |  |

| SMILES | logP | solubility |
| --- | --- | --- |
| CC(=O)c1ccc(NCc2cnc3nc(N)nc(N)c3c2C)cc1 | 1.45 |  |
| C=CC(=O)NCCN1CCOCC1 | -0.55 |  |
| CC(=O)O[C@@H]1C[C@H]2CC[C@]1(C)C2(C)C | 4.3 |  |
| C[C@H](CCC(=O)NCC(=O)O)[C@H]1CC[C@H]2[C@@H]3[C@H](O)[C@H](O)[C@@H]4C[C@H](O)CC[C@]4(C)[C@H]3CC[C@]12C | 1.9 |  |
| CCCCCCc1ccc(N)cc1 | 4.21 |  |
| CC(C)(C)C(=O)OCn1ncc2c(O)ncnc21 | 1.07 |  |
| COc1cccc(C=O)c1 | 1.71 |  |
| Nc1cccc2c(N)cccc12 | 0.89 |  |
| Clc1cccc2ccccc12 | 4 |  |
| Cc1cc(O)cc(C)c1Cl | 3.27 |  |
| COc1ccc2[nH]c3c4ccc(Cl)cc4ncc3c2c1 | 4.49 |  |
| CC(C)(C#N)Nc1nc(Cl)nc(NC2CC2)n1 | 1.99 |  |
| C[Si](C)(C)O[Si](C)(C)O[Si](C)(C)O[Si](C)(C)C | 8.21 |  |
| CCCCCCCCC(C)=O | 3.73 |  |
| COc1c2occc2cc2ccc(=O)oc12 | 2 |  |
| CN(C)c1cnn(-c2ccccc2)c(=O)c1Cl | 1.55 |  |
| O=C(O)CCCCc1ccccc1 | 2.94 |  |
| CCn1cc(C(=O)O)c(=O)c2cc(F)c(N3CCNCC3)c(F)c21 | -0.57 |  |
| C=CC(=O)NCCCN1CCOCC1 | -0.53 |  |
| CN(C)CCCN1c2ccccc2S(=O)c2ccc(Cl)cc21 (stereo unspecified) | 2.32 |  |
| CC(=O)OC1CCC(C(C)(C)C)CC1 (stereo unspecified) | 4.8 |  |
| CCOC(=O)c1ccccc1O | 2.95 |  |
| CC(=O)OCCN(CCC#N)c1ccc(N=Nc2nc3ccc([N+](=O)[O-])cc3s2)cc1 | 4.08 | 1.57 µM (≈ 0.69 µg/mL) |
| Nc1nc2c(ncn2COCCO)c(=O)[nH]1 | -1.56 |  |
| CN(C)P(=O)(N1CCCC1)N1CCCC1 | 1.88 |  |
| CCCCOC(=O)c1ccccc1C(=O)OCc1ccccc1 | 4.73 |  |
